Results reported in patent publication US20120101110A1, “Diaza-spiro[5.5]undecanes” (priority 2010, published 2012).

Tests used:
human orexin 2 receptors = biological target: T1, human orexin 2 receptors (Homo sapiens, UniProt O43614); assay: Calcium accumulation in cells (FLIPR), hOx2R; type: cell-based; conditions: cells expressing human orexin 2 receptor; inhibition of orexin A-induced calcium accumulation; Cheng and Prusoff correction
T1 sequence (O43614 1-444): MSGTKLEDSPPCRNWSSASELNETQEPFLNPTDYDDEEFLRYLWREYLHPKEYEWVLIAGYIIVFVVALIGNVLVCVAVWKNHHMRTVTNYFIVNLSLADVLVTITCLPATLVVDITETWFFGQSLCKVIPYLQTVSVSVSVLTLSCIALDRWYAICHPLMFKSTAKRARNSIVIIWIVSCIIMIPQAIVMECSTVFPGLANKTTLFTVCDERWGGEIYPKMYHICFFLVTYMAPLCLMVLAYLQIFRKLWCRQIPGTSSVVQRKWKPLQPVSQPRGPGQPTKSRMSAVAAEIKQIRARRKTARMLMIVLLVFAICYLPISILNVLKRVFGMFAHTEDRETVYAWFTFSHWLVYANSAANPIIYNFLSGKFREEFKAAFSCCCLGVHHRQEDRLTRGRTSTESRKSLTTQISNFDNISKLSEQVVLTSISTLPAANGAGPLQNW

human orexin 1 receptors = biological target: T2, human orexin 1 receptors (Homo sapiens, UniProt O43613); assay: Calcium accumulation in cells (FLIPR), hOx1R; conditions: for inhibition at 10 µM: read-out: FLIPR hOx1R % inhibition value
T2 sequence (O43613 1-425): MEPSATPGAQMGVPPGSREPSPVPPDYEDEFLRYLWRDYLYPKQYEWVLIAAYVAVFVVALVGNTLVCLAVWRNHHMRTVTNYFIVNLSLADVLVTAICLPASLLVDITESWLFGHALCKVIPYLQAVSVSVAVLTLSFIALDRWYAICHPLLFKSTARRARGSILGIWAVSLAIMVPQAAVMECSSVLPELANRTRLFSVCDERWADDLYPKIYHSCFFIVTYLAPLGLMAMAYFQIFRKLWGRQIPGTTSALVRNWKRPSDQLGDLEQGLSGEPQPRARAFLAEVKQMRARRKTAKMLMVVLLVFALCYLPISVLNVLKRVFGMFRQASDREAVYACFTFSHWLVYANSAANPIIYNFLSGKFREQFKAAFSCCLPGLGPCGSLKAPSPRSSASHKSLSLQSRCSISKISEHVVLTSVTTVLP

Compound | Ki (human orexin 2 receptors) | inhibition at 10 µM (human orexin 1 receptors) | Ki (human orexin 1 receptors)
COc1cncc(N2CCC3(CCCN(Cc4c[nH]c5ncccc45)C3=O)CC2)n1 [Example 8, 2-((1H-pyrrolo[2,3-b]pyridin-3-yl)methyl)-9-(6-methoxypyrazin-2-yl)-2,9-diazaspiro[5.5]undecan-1-one] | 276 nM | 31% | –
N#Cc1ccc(N2CCC3(CCCC(=O)N3Cc3cccc4[nH]ccc34)CC2)nc1 [Example 14, 6-(1-((1H-indol-4-yl)methyl)-2-oxo-1,9-diazaspiro[5.5]undecan-9-yl)nicotinonitrile] | 200 nM | 13% | –
Cc1ccnc(N2CCC3(CCCC(=O)N3Cc3ccccc3-n3nccn3)CC2)n1 [Example 16, 1-(2-(2H-1,2,3-triazol-2-yl)benzyl)-9-(4-methylpyrimidin-2-yl)-1,9-diazaspiro[5.5]undecan-2-one] | 270 nM | 31% | –
Cc1nnc(N2CCC3(CCCN(Cc4c[nH]c5ccccc45)C3=O)CC2)o1 [Example 17, 2-((1H-indol-3-yl)methyl)-9-(5-methyl-1,3,4-oxadiazol-2-yl)-2,9-diazaspiro[5.5]undecan-1-one] | – | 12% | –
O=C1N(Cc2c[nH]c3ncccc23)CCCC12CCN(c1cncc(Cl)n1)CC2 [Example 18, 2-((1H-pyrrolo[2,3-b]pyridin-3-yl)methyl)-9-(6-chloropyrazin-2-yl)-2,9-diazaspiro[5.5]undecan-1-one] | 123 nM | – | 3200 nM
Cc1cncc(N2CCC3(CCCN(Cc4c[nH]c5ncccc45)C3=O)CC2)n1 [Example 19, 2-((1H-pyrrolo[2,3-b]pyridin-3-yl)methyl)-9-(6-methylpyrazin-2-yl)-2,9-diazaspiro[5.5]undecan-1-one] | 147 nM | 31% | –
Cc1cc(C)nc(N2CCC3(CCCN(Cc4c(-c5ccccc5)noc4C)C3=O)CC2)n1 [Example 23, 9-(4,6-dimethylpyrimidin-2-yl)-2-((5-methyl-3-phenylisoxazol-4-yl)methyl)-2,9-diazaspiro[5.5]undecan-1-one] | 115 nM | – | 2880 nM
Cc1ccnc(N2CCC3(CCCN(Cc4ccccc4-n4nccn4)C3=O)CC2)n1 [Example 24, 2-(2-(2H-1,2,3-triazol-2-yl)benzyl)-9-(4-methylpyrimidin-2-yl)-2,9-diazaspiro[5.5]undecan-1-one] | 509 nM | < 10% | –
N#Cc1cccc(N2CCC3(CCCN(Cc4ccccc4-n4nccn4)C3=O)CC2)n1 [Example 26, 6-(2-(2-(2H-1,2,3-triazol-2-yl)benzyl)-1-oxo-2,9-diazaspiro[5.5]undecan-9-yl)picolinonitrile] | – | < 10% | –
N#Cc1ccnc(N2CCC3(CCCN(Cc4ccccc4-n4nccn4)C3=O)CC2)c1 [Example 27, 2-(2-(2-(2H-1,2,3-triazol-2-yl)benzyl)-1-oxo-2,9-diazaspiro[5.5]undecan-9-yl)isonicotinonitrile] | 645 nM | < 10% | –
Cc1ccnc(N2CCC3(CCCN(Cc4cccc(-c5ncccn5)c4)C3=O)CC2)n1 [Example 30, 9-(4-methylpyrimidin-2-yl)-2-(3-(pyrmidin-2-yl)benzyl)-2,9-diazaspiro[5.5]undecan-1-one] | 686 nM | 48% | –
CN(C)c1ccnc(N2CCC3(CCCN(Cc4c[nH]c5ccccc45)C3=O)CC2)n1 [Example 46, 2-((1H-indol-3-yl)methyl)-9-(4-(dimethylamino)pyrimidin-2-yl)-2,9-diazaspiro[5.5]undecan-1-one] | 143 nM | 25% | –
COc1nccc(N2CCC3(CCCN(Cc4c[nH]c5ccccc45)C3=O)CC2)n1 [Example 47, 2-((1H-indol-3-yl)methyl)-9-(2-methoxypyrimidin-4-yl)-2,9-diazaspiro[5.5]undecan-1-one] | 630 nM | 25% | –
O=C1N(Cc2c[nH]c3ccccc23)CCCC12CCN(c1ccnc(Cl)n1)CC2 [Example 48, 2-((1H-indol-3-yl)methyl)-9-(2-chloropyrimidin-4-yl)-2,9-diazaspiro[5.5]undecan-1-one] | 152 nM | – | 3150 nM
O=C1N(Cc2c[nH]c3ccccc23)CCCC12CCN(c1nccc(C(F)(F)F)n1)CC2 [Example 49, 2-((1H-indol-3-yl)methyl)-9-(4-(trifluoromethyl)pyrimidin-2-yl)-2,9-diazaspiro[5.5]undecan-1-one] | 190 nM | – | 2180 nM
CC(C)c1ccnc(N2CCC3(CCCN(Cc4c[nH]c5ccccc45)C3=O)CC2)n1 [Example 50, 2-((1H-indol-3-yl)methyl)-9-(4-isopropylpyrimidin-2-yl)-2,9-diazaspiro[5.5]undecan-1-one] | 223 nM | – | 1860 nM

Compound | Ki (human orexin 2 receptors) | inhibition at 10 µM (human orexin 1 receptors) | Ki (human orexin 1 receptors)
CCOc1ccnc(N2CCC3(CCCN(Cc4c[nH]c5ccccc45)C3=O)CC2)n1 [Example 52, 2-((1H-indol-3-yl)methyl)-9-(4-ethoxypyrimidin-2-yl)-2,9-diazaspiro[5.5]undecan-1-one] | 125 nM | – | 1060 nM
Cn1cc(CN2CCCC3(CCN(c4cncc(Cl)n4)CC3)C2=O)c2ccccc21 [Example 53, 9-(6-chloropyrazin-2-yl)-2-((1-methyl-1H-indol-3-yl)methyl)-2,9-diazaspiro[5.5]undecan-1-one] | 420 nM | – | 2740 nM
CCn1cc(CN2CCCC3(CCN(c4nc(C)cc(C)n4)CC3)C2=O)c2ccccc21 [Example 54, 9-(4,6-dimethylpyrimidin-2-yl)-2-((1-ethyl-1H-indol-3-yl)methyl)-2,9-diazaspiro[5.5]undecan-1-one] | 149 nM | – | 3150 nM
COc1cncc(N2CCC3(CCCC(=O)N3Cc3c[nH]c4ccccc34)CC2)n1 [Example 55, 1-((1H-indol-3-yl)methyl)-9-(6-methoxypyrazin-2-yl)-1,9-diazaspiro[5.5]undecan-2-one] | 727 nM | 40% | –
COc1cncc(N2CCC3(CCCN(Cc4cccc5c4OCCO5)C3=O)CC2)n1 [Example 56, 2-((2,3-dihydrobenzo[b][1,4]dioxin-5-yl)methyl)-9-(6-methoxypyrazin-2-yl)-2,9-diazaspiro[5.5]undecan-1-one] | 718 nM | 35% | –
Cc1cccc(N2CCC3(CCCN(Cc4c[nH]c5ccccc45)C3=O)CC2)c1 [Example 57, 2-((1H-indol-3-yl)methyl)-9-m-tolyl-2,9-diazaspiro[5.5]undecan-1-one] | 171 nM | – | 3750 nM
COc1cc(N2CCC3(CCCN(Cc4c[nH]c5ccccc45)C3=O)CC2)ccn1 [Example 61, 2-((1H-indol-3-yl)methyl)-9-(2-methoxypyridin-4-yl)-2,9-diazaspiro[5.5]undecan-1-one] | – | – | 3840 nM
O=C1N(Cc2c[nH]c3ccccc23)CCCC12CCN(c1cccc(O)n1)CC2 [Example 84, 2-((1H-indol-3-yl)methyl)-9-(6-hydroxypyridin-2-yl)-2,9-diazaspiro[5.5]undecan-1-one] | – | 24% | –
Cc1ccnc(N2CCC3(CCCC(=O)N3Cc3ccc(-c4ncccn4)cc3)CC2)n1 [Example 90, 9-(4-methylpyrimidin-2-yl)-1-(4-(pyrimidin-2-yl)benzyl)-1,9-diazaspiro[5.5]undecan-2-one] | – | < 10% | –
Cc1ccnc(N2CCC3(CCCC(=O)N3Cc3cccc(-n4nccn4)c3)CC2)n1 [Example 94, 1-(3-(2H-1,2,3-triazol-2-yl)benzyl)-9-(4-methylpyrimidin-2-yl)-1,9-diazaspiro[5.5]undecan-2-one] | – | 36% | –
Cc1ccnc(N2CCC3(CCCC(=O)N3Cc3nnc(-c4ccccc4)o3)CC2)n1 [Example 95, 9-(4-methylpyrimidin-2-yl)-1-((5-phenyl-1,3,4-oxadiazol-2-yl)methyl)-1,9-diazaspiro[5.5]undecan-2-one] | – | 10% | –
Cc1ccnc(N2CCC3(CCCC(=O)N3Cc3cccc(-c4nc(C)no4)c3)CC2)n1 [Example 97, 1-(3-(3-methyl-1,2,4-oxadiazol-5-yl)benzyl)-9-(4-methylpyrimidin-2-yl)-1,9-diazaspiro[5.5]undecan-2-one] | – | 15% | –
Cc1ccnc(N2CCC3(CCCC(=O)N3Cc3cccc(N4CCCC4)n3)CC2)n1 [Example 98, 9-(4-methylpyrimidin-2-yl)-1-((6-(pyrrolidin-1-yl)pyridin-2-yl)methyl)-1,9-diazaspiro[5.5]undecan-2-one] | – | < 10% | –
Cc1cc(N2CCC3(CCCN(Cc4c[nH]c5ccccc45)C3=O)CC2)ccn1 [Example 100, 2-((1H-indol-3-yl)methyl)-9-(2-methylpyridin-4-yl)-2,9-diazaspiro[5.5]undecan-1-one] | – | < 10% | –
Cc1ccnc(N2CCC3(CCCC(=O)N3Cc3cc(C#N)ccc3F)CC2)n1 [Example 101, 4-fluoro-3-((9-(4-methylpyrimidin-2-yl)-2-oxo-1,9-diazaspiro[5.5]undecan-1-yl)methyl)benzonitrile] | – | < 10% | –
